The target of one assay is T1, AXL (Homo sapiens, UniProt P30530).
T1 construct: endogenous in cells; host or cells: A-172 glioblastoma cells (ATCC #CRL-1620)
T1 sequence (P30530 26-894): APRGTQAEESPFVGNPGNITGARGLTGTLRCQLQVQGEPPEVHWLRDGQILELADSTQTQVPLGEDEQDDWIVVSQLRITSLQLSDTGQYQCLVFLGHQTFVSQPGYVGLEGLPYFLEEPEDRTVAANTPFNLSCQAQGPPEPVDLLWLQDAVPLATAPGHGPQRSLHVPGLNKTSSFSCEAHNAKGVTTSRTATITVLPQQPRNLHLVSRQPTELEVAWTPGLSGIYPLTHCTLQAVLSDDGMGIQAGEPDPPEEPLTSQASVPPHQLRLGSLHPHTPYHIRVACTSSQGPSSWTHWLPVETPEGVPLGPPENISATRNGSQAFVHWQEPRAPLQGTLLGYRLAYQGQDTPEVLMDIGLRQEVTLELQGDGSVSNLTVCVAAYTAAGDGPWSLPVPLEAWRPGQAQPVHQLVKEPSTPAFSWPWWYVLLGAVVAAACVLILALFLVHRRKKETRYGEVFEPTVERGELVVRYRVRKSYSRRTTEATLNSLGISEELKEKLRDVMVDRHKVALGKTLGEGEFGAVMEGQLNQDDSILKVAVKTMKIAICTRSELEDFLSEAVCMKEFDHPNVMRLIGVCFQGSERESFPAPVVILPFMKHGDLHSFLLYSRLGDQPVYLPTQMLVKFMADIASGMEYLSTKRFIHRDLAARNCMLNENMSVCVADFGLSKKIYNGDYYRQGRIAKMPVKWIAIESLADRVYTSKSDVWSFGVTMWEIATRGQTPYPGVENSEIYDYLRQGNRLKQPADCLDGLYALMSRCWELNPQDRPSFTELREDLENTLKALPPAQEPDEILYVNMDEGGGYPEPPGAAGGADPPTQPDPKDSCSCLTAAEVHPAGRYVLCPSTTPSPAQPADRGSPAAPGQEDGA
Description: AXL autophosphorylation ELISA in A-172 cells. It is filed as cell-based. The note with it: Table 3 Cellular Activities, Gas6-stimulated, phospho-AXL ELISA. On the procedure: A-172 glioblastoma cells (ATCC #CRL-1620) were seeded at 2.5×10^5 cells/well onto 24-well plates (Greiner #662165), in DMEM (Thermo Fisher #11995-040) containing 10% FBS (Thermo Fisher #26140-079), 1% MEM NEAA (Thermo Fisher #11140-050), 1% GlutaMax (Thermo Fisher #35050-061), and 1% Penicillin Streptomycin (Thermo Fisher #15140-122). A-172 cells were incubated at 37° C., 5% CO2 for 24 h and then starved for 24 h in serum-free medium. Test compounds were serially diluted to produce an 8-point dose curve in fresh serum-free medium to a final concentration of 0.3% DMSO (vehicle) and added to the cells and incubated for 1 h. Cells were then stimulated with 1 μg/mL recombinant human Gas6 (R&D Systems #885-GSB-500) for 15 min, washed with cold PBS, and immediately lysed with 150 μL of cold 1× lysis buffer [20 mM Tris, 137 mM sodium chloride, 2 mM EDTA, 10% glycerol, 1% NP-40 alternative, 1 mM activated sodium orthovanadate, 1 mM PefaBloc SC (Sigma-Aldrich #11429868001), protease/phosphatase inhibitor tablet (Thermo Fisher #A32959)]. Lysates were collected and 100 μL/well added into the human phospho-AXL DuoSet IC ELISA (R&D Systems #DYC2228-2). Assay was performed according to manufacturer's instructions and sample phospho-AXL concentrations were extrapolated using human phospho-AXL control (R&D Systems #841645) as a standard. Positive control wells (100% activity) contained Gas6-stimulated, DMSO-treated cell lysates. Negative control wells (0% activity) contained Gas6-stimulated, reference inhibitor-treated cell lysates. IC50 values were calculated by nonlinear regression analysis using a 4-parameter logistic curve fit in ActivityBase XE (IDBS).

In another assay the target is KDR (Homo sapiens, UniProt P35968). Description: KDR autophosphorylation ELISA in HUVEC cells. It is filed as cell-based. Also noted: endogenous in cells; host or cells: HUVEC (Lonza #C2519A). The note with it: Table 3 Cellular Activities, VEGF165-stimulated, phospho-KDR ELISA. Put shortly: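 Read-out: phospho-KDR ELISA on cell lysates, quantified against a phospho-KDR standard, normalised to VEGF-stimulated DMSO (100%) and unstimulated (0%) wells, IC50 by 4-parameter fit. Cells were 24 h serum-starved HUVEC given compound for 1 h, then 100 ng/mL VEGF165 for 5 min.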
Sequence of KDR (P35968 20-1356): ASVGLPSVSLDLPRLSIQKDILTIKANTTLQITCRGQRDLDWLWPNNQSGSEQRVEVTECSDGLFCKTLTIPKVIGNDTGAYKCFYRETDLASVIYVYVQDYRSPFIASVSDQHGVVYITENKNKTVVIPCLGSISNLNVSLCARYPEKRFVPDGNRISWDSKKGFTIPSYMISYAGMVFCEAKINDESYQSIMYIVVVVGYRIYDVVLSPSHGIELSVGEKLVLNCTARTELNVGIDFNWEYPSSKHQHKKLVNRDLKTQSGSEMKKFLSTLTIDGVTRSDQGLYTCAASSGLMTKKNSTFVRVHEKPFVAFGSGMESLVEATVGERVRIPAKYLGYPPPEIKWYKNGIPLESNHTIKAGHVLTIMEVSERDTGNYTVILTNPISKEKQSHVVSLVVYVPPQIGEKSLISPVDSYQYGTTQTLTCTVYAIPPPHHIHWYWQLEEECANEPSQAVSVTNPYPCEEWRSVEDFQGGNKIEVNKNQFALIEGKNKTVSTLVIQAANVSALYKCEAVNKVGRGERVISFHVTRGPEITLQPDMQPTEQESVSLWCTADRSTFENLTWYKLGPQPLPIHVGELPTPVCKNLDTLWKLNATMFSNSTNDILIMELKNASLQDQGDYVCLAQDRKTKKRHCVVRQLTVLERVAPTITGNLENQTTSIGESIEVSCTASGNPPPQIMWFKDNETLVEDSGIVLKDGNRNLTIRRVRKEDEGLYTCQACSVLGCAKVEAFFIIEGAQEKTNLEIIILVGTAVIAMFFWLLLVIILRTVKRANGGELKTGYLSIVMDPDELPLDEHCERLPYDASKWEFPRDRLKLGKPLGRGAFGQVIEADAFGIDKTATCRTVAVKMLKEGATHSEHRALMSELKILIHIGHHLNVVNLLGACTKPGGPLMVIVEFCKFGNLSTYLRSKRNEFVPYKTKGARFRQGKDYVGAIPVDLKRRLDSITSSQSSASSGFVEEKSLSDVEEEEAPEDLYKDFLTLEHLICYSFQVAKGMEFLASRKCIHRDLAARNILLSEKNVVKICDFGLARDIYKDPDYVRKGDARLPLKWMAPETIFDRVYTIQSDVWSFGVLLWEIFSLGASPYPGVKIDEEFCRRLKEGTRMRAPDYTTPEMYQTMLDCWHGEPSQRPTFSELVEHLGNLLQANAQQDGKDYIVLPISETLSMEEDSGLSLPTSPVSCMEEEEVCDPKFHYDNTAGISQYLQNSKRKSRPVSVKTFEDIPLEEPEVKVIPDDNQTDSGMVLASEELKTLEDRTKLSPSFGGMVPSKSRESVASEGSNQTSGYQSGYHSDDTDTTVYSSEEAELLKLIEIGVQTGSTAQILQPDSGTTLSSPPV
For orientation: In an ELISA, binding on a coated surface is turned into a signal by an enzyme label.

pIC50: −log10 of the molar value.

The pIC50 is the negative decadic logarithm of the IC50, by convention in mol/L. With `COc1cc2c(Oc3ccc(NC(=O)c4c(C)ncc(-c5ccccn5)c4O)cc3F)ccnc2cn1` [Compound 223, N-[3-Fluoro-4-[(6-methoxy-1,7-naphthyridin-4-yl)oxy]phenyl]-4-hydroxy-2-methyl-5-pyridin-2-ylpyridine-3-carboxamide], the pIC50 on AXL and on KDR was not below 7.00 in each case.
For `COc1cnc2c(Oc3ccc(NC(=O)c4c(C)n(C)cc(-c5ccc(F)cn5)c4=O)cc3F)ccnc2c1` [Compound 73, N-[3-Fluoro-4-[(7-methoxy-1,5-naphthyridin-4-yl)oxy]phenyl]-5-(5-fluoropyridin-2-yl)-1,2-dimethyl-4-oxopyridine-3-carboxamide], the pIC50 against AXL is not below 7.00; against KDR, 6.00 to 6.52.
With `COc1cc2nccc(Oc3ccc(NC(=O)c4ccc(C)n(-c5ccncc5F)c4=O)cc3F)c2nc1OC` [Compound 220, N-[4-[(6,7-Dimethoxy-1,5-naphthyridin-4-yl)oxy]-3-fluorophenyl]-1-(3-fluoropyridin-4-yl)-6-methyl-2-oxopyridine-3-carboxamide], the pIC50 against AXL and against KDR was not below 7.00 each time.
As to `CCOc1ccn(-c2ccc(F)cn2)c(=O)c1C(=O)Nc1ccc(Oc2ccnc3cc(OC)c(OC)nc23)cc1` [Compound 244, N-[4-[(6,7-Dimethoxy-1,5-naphthyridin-4-yl)oxy]phenyl]-4-ethoxy-1-(5-fluoropyridin-2-yl)-2-oxopyridine-3-carboxamide], the pIC50 at AXL is not below 7.00; at KDR it was 6.00 to 6.52.
Turning to `COc1cc2nccc(Oc3ccc(NC(=O)c4c5n(cc(-c6ccco6)c4=O)CCOC5)cc3)c2nc1OC` [Compound 298, N-[4-[(6,7-Dimethoxy-1,5-naphthyridin-4-yl)oxy]phenyl]-7-(furan-2-yl)-8-oxo-3,4-dihydro-1H-pyrido[2,1-c][1,4]oxazine-9-carboxamide], the figures for the pIC50 against AXL and at KDR were not below 7.00 and 6.00 to 6.52, respectively.
Regarding `COc1cc2nccc(Oc3ccc(NC(=O)c4c5n(cc(-c6ccco6)c4=O)CCOC5)cc3F)c2nc1OC` [Compound 297, N-[4-[(6,7-Dimethoxy-1,5-naphthyridin-4-yl)oxy]-3-fluorophenyl]-7-(furan-2-yl)-8-oxo-3,4-dihydro-1H-pyrido[2,1-c][1,4]oxazine-9-carboxamide], the pIC50 against AXL was not below 7.00; at KDR, 6.00 to 6.52.
In the same order, the values of `COc1cc2nccc(Oc3ccc(NC(=O)c4c(C)ncc(-c5ccc(F)cn5)c4O)cc3F)c2nc1OC` [Compound 68, N-[4-[(6,7-Dimethoxy-1,5-naphthyridin-4-yl)oxy]-3-fluorophenyl]-5-(5-fluoropyridin-2-yl)-4-hydroxy-2-methylpyridine-3-carboxamide] are not below 7.00 and not below 7.00.
Consider `COc1cc2nccc(Oc3ccc(NC(=O)c4ccc(C)n(-c5ccc(F)cn5)c4=O)cc3)c2nc1OC` [Compound 44, N-[4-[(6,7-Dimethoxy-1,5-naphthyridin-4-yl)oxy]phenyl]-1-(5-fluoropyridin-2-yl)-6-methyl-2-oxopyridine-3-carboxamide], for which the pIC50 at AXL and against KDR was not below 7.00 each time.
Turning to `COc1cc2nccc(Oc3ccc(NC(=O)c4c5n(cc(-c6cc(C)cs6)c4=O)CCOC5)cc3F)c2nc1OC` [Compound 302, N-[4-[(6,7-Dimethoxy-1,5-naphthyridin-4-yl)oxy]-3-fluorophenyl]-7-(4-methylthiophen-2-yl)-8-oxo-3,4-dihydro-1H-pyrido[2,1-c][1,4]oxazine-9-carboxamide], the negative logarithm of the IC50 (pIC50) against AXL and against KDR was not below 7.00 throughout.
With `COc1cc2nccc(Oc3ccc(NC(=O)c4cnc(C)c(-c5cccs5)c4O)cc3)c2nc1OC` [Compound 256, N-[4-[(6,7-Dimethoxy-1,5-naphthyridin-4-yl)oxy]phenyl]-4-hydroxy-6-methyl-5-thiophen-2-ylpyridine-3-carboxamide], the negative-log IC50 (pIC50) against AXL and against KDR was not below 7.00 throughout.
`COc1ccc2nccc(Oc3ccc(NC(=O)c4ccc(C)n(-c5ccc(F)cn5)c4=O)cc3F)c2c1` [Compound 49, N-[3-Fluoro-4-(6-methoxyquinolin-4-yl)oxyphenyl]-1-(5-fluoropyridin-2-yl)-6-methyl-2-oxopyridine-3-carboxamide]: the pIC50 at AXL and at KDR was not below 7.00 throughout.
For `COCc1nc(C)c(-c2ccc(F)cn2)c(O)c1C(=O)Nc1ccc(Oc2ccnc3cc(OC)c(OC)nc23)c(F)c1` [Compound 214, N-[4-[(6,7-Dimethoxy-1,5-naphthyridin-4-yl)oxy]-3-fluorophenyl]-5-(5-fluoropyridin-2-yl)-4-hydroxy-2-(methoxymethyl)-6-methylpyridine-3-carboxamid], the pIC50 at AXL and at KDR was not below 7.00 throughout.
Turning to `COc1cc2nccc(Oc3ccc(NC(=O)c4c(C)cc(C)n(-c5ccc(F)cn5)c4=O)cc3)c2nc1OC` [Compound 245, N-[4-[(6,7-Dimethoxy-1,5-naphthyridin-4-yl)oxy]phenyl]-1-(5-fluoropyridin-2-yl)-4,6-dimethyl-2-oxopyridine-3-carboxamide], the negative-log IC50 (pIC50) against AXL and against KDR was not below 7.00 each time.
For `COc1cnc2c(Oc3ccc(NC(=O)c4c(C)nc(C)c(-c5ccc(F)cn5)c4O)cc3F)ccnc2c1` [Compound 217, N-[3-Fluoro-4-[(7-methoxy-1,5-naphthyridin-4-yl)oxy]phenyl]-5-(5-fluoropyridin-2-yl)-4-hydroxy-2,6-dimethylpyridine-3-carboxamide], the pIC50 on AXL and at KDR was not below 7.00 in each case.
Take `COc1cc2nccc(Oc3ccc(NC(=O)c4ncc(C)n(-c5ccc(F)cn5)c4=O)cc3F)c2nc1OC` [Compound 219, N-[4-[(6,7-Dimethoxy-1,5-naphthyridin-4-yl)oxy]-3-fluorophenyl]-4-(5-fluoropyridin-2-yl)-5-methyl-3-oxopyrazine-2-carboxamide]: the pIC50 against AXL and against KDR was not below 7.00 in each case.
On to `COc1cc2nccc(Oc3ccc(NC(=O)c4ccc(C)n(-c5ccnc(O)c5)c4=O)cc3F)c2nc1OC` [Compound 232, N-[4-[(6,7-Dimethoxy-1,5-naphthyridin-4-yl)oxy]-3-fluorophenyl]-1-(2-hydroxypyridin-4-yl)-6-methyl-2-oxopyridine-3-carboxamide], for which the pIC50 on AXL was not below 7.00; against KDR, 6.00 to 6.52.
For the compound `CCOc1ccn(-c2ccc(F)cn2)c(=O)c1C(=O)Nc1ccc(Oc2ccnc3cc(OC)c(OC)nc23)c(F)c1` [Compound 243, N-[4-[(6,7-dimethoxy-1,5-naphthyridin-4-yl)oxy]-3-fluorophenyl]-4-ethoxy-1-(5-fluoropyridin-2-yl)-2-oxopyridine-3-carboxamide], the pIC50 is not below 7.00 at AXL and 6.52 to 7.00 against KDR.
Consider `COCCOc1cc2nccc(Oc3ccc(NC(=O)c4ccc(C)n(-c5ccc(F)cn5)c4=O)cc3F)c2nc1OC` [Compound 50, N-[3-Fluoro-4-[[6-methoxy-7-(2-methoxyethoxy)-1,5-naphthyridin-4-yl]oxy]phenyl]-1-(5-fluoropyridin-2-yl)-6-methyl-2-oxopyridine-3-carboxamide], for which the pIC50 against AXL and against KDR was not below 7.00 throughout.

For the origin of these results see US20230151003A1, “COMPOUNDS AND METHODS OF USE” (Exelixis, Inc., priority 2020, published 2023).
